In patent publication US10703764B2, “Benzopiperazine compositions as BET bromodomain inhibitors” (FORMA Therapeutics, Inc., priority 2013, dated 2020) one finds IC50 data, which are given here for 35 molecules.

The target in one test is T1, BRD4 BD2 (Homo sapiens, UniProt O60885).
T1 construct: made in house
Description: AlphaScreen binding assay, BRD4 Bromodomain 2. A digest of the protocol: (§1)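 An AlphaScreen competition format was used with His-BRD4 BD1 or BD2 and biotin-H4 K5/8/12/16-acetyl peptide, each at matched final levels of 50 nM (BD1) or 100 nM (BD2). Incubation in HEPES/NaCl buffer with 0.1% BSA and 0.01% Triton X-100 ran ≥1 h before IC50 determination.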

Another test relates to MV4-11 cells. Description: Oncology cell growth assay (3-day proliferation, CellTiter-Glo). The following applies: Homo sapiens, MV4-11, 72 h, AML cell line MV4-11, 72 hours, compounds grouped by IC50 range, read-out: MV4-11 IC50 (inhibition of proliferation, gIC50). It is filed as cell-based. A digest of the protocol:
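MV4-11 AML cells (RPMI 1640, 10% FBS) plated at 3000 cells/well and exposed 72 h to compound at final 10 to 0.0045 μM (3-fold series). Viability read by CellTiter-Glo luminescence; gIC50 from four-parameter logistic fit between DMSO control and no-cell background.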

The target of another test is T2, BRD4 BD1 (Homo sapiens, UniProt O60885).
T2 construct: made in house
The test is described as follows: AlphaScreen binding assay, BRD4 Bromodomain 1. In a few lines: as §1

In the case of `CNS(=O)(=O)c1ccc(-c2ccc3c(c2)N(C(=O)C2CCC2)C[C@H](C)N3C(C)=O)cc1` [Example I-1120], the IC50 on BRD4 BD2 fell in the range of 50 to 500 nM; in the test on MV4-11 cells it was 100 to 500 nM; on BRD4 BD1 it was 1000 to 10000 nM.
Taken in the same sequence, the figures for `CC(=O)N1c2ccc(-c3ccc(S(=O)(=O)NCCO)cc3)cc2N(C(=O)OC(C)C)C[C@@H]1C` [Example I-1038] were 50 to 500 nM, 100 to 500 nM and 100 to 1000 nM.
`CC(=O)N1c2ccc(-c3cnn(CCO)c3)cc2N(c2nn(C)c3cccc(F)c23)C[C@@H]1C` [Example I-190, 1-[(2S)-4-(4-fluoro-1-methyl-1H-indazol-3-yl)-6-[1-(2-hydroxyethyl)-1H-pyrazol-4-yl]-2-methyl-1,2,3,4-tetrahydroquinoxalin-1-yl]ethan-1-one]: the values for the IC50 on BRD4 BD2, with MV4-11 cells and at BRD4 BD1 were below 50 nM, 100 to 500 nM and 100 to 1000 nM, respectively.
`COc1cc2c(cc1-c1ccc(S(C)(=O)=O)cc1)N(C(=O)OC(C)C)C[C@H](C)N2C(C)=O` [Example I-199, Isopropyl (S)-4-acetyl-6-methoxy-3-methyl-7-(4-(methylsulfonyl)phenyl)-3,4-dihydroquinoxaline-1(2H)-carboxylate]: the IC50 was above 500 nM at BRD4 BD2, above 500 nM in the test with MV4-11 cells and 1000 to 10000 nM at BRD4 BD1.
For the molecule `CC(=O)N1c2ccc(-c3cnn(C4COC4)c3)cc2N(C(=O)Oc2ccncc2)C[C@@H]1C` [Example I-90, (S)-pyridin-4-yl 4-acetyl-3-methyl-7-(1-(oxetan-3-yl)-1H-pyrazol-4-yl)-3,4-dihydroquinoxaline-1(2H)-carboxylate], the IC50 was below 50 nM on BRD4 BD2, 100 to 500 nM in the test on MV4-11 cells and below 100 nM on BRD4 BD1.
For the molecule `C[C@H]1CN(C(=O)OCC2CC2)c2cc(-c3cnn(C4CC4)c3)ccc2N1C(=O)C1CC1` [Example I-995], the IC50 at BRD4 BD2 was in the range of 50 to 500 nM; in the test on MV4-11 cells, 100 to 500 nM; at BRD4 BD1, 100 to 1000 nM.
Take `CCS(=O)(=O)c1ccc(-c2ccc3c(c2)N(C(=O)C2CCC2)C[C@H](C)N3C(C)=O)cc1` [Example I-1028]: the IC50 is 50 to 500 nM on BRD4 BD2, above 500 nM in the test on MV4-11 cells and 1000 to 10000 nM at BRD4 BD1.
Taken in the same sequence, the figures for `CCS(=O)(=O)c1ccc(-c2ccc3c(c2)N(C(=O)OC2CCOCC2)C[C@H](C)N3C(C)=O)cc1` [Example I-1214] were 50 to 500 nM, 100 to 500 nM and 100 to 1000 nM.
On to `COC(=O)N1c2ccc(-c3cnn(C(C)(C)CO)c3)cc2N(C(=O)Oc2ccc(F)cc2)C[C@@H]1C` [Example I-1024], for which the IC50 was below 50 nM at BRD4 BD2, 100 to 500 nM in the test with MV4-11 cells and 100 to 1000 nM on BRD4 BD1.
Take `CCOC(=O)N1C[C@H](C)N(C(C)=O)c2ccc(-c3ccc(S(=O)(=O)NC)cc3)cc21` [Example I-1121]: the IC50 at BRD4 BD2 is 50 to 500 nM; in the test with MV4-11 cells, 100 to 500 nM; on BRD4 BD1, 1000 to 10000 nM.
For the molecule `COc1c(OC(=O)N2C[C@H](C)N(C(C)=O)c3ccc(-c4cnn(C5CC5)c4)cc32)ccnc1C` [Example I-522], the IC50 was 50 to 500 nM on BRD4 BD2, below 100 nM in the test with MV4-11 cells and 100 to 1000 nM at BRD4 BD1.
In the case of `CC(C)OC(=O)N1C[C@H](C)N(C(=O)C2CC2)c2ccc(-c3cnn(CCn4ccnc4)c3)cc21` [Example I-612], the figures for the IC50 on BRD4 BD2, in the test on MV4-11 cells and on BRD4 BD1 were 50 to 500 nM, above 500 nM and 100 to 1000 nM, respectively.
The corresponding values for `CC(=O)N1c2ccc(-c3cccc(S(C)(=O)=O)c3)cc2N(C(=O)OC2CCCCC2)C[C@@H]1C` [Example I-1225] are 50 to 500 nM, 100 to 500 nM and 100 to 1000 nM.
Taken in the same sequence, the figures for `CC(=O)N1c2ccc(-c3ccc(N4CCCC4=O)cc3)cc2N(C(=O)OC2CCCCC2)C[C@@H]1C` [Example I-1267] were 50 to 500 nM, 100 to 500 nM and 100 to 1000 nM.
The corresponding values for `CC(=O)N1c2ccc(-c3cnn(C4CC4)c3)cc2N(C(=O)Oc2ccc(C)nc2)C[C@@H]1C` [Example I-511] are below 50 nM, 100 to 500 nM and below 100 nM.
As to `CC(=O)N1c2ccc(-c3ccc(S(=O)(=O)N4CCC4)cc3)cc2N(C(=O)c2ccco2)C[C@@H]1C` [Example I-289], the IC50 at BRD4 BD2 was below 50 nM; in the test on MV4-11 cells it was 100 to 500 nM; on BRD4 BD1, 100 to 1000 nM.
Take `CC(=O)N1c2ccc(-c3ccc(C(=O)NCC(N)=O)cc3)cc2N(C(=O)OC(C)C)C[C@@H]1C` [Example I-534]: the IC50 on BRD4 BD2 lay in the range of 50 to 500 nM; with MV4-11 cells, 100 to 500 nM; at BRD4 BD1, 100 to 1000 nM.
As to `CC(=O)N1c2ccc(-c3cnn(C4CC4)c3)cc2N(c2nn(C)c3ccncc23)C[C@@H]1C` [Example I-186, 1-[(2S)-6-(1-cyclopropyl-1H-pyrazol-4-yl)-2-methyl-4-{1-methyl-1H-pyrazolo[4,3-c]pyridin-3-yl}-1,2,3,4-tetrahydroquinoxalin-1-yl]ethan-1-one], the IC50 at BRD4 BD2 is 50 to 500 nM; with MV4-11 cells, 100 to 500 nM; on BRD4 BD1, 100 to 1000 nM.
`CC(C)OC(=O)N1C[C@H](C)N(C(=O)C2CC2)c2ccc(-c3ccc(C4(O)COC4)cc3)cc21` [Example I-474]: the results for the IC50 on BRD4 BD2, with MV4-11 cells and at BRD4 BD1 were 50 to 500 nM, above 500 nM and 100 to 1000 nM, respectively.
As for `CC(C)OC(=O)N1C[C@H](C)N(C(=O)C2CC2)c2ccc(-c3cnn(C4CC4)c3)cc21` [Example I-378], the IC50 on BRD4 BD2 lay in the range of 50 to 500 nM; in the test with MV4-11 cells, 100 to 500 nM; at BRD4 BD1 it was 100 to 1000 nM.
On to `CNS(=O)(=O)c1ccc(-c2ccc3c(c2)N(C(=O)C2CC2)C[C@H](C)N3C(C)=O)cc1` [Example I-1119], for which the values for the IC50 on BRD4 BD2, in the test on MV4-11 cells and on BRD4 BD1 were 50 to 500 nM, 100 to 500 nM and 1000 to 10000 nM, respectively.
Regarding `CC(=O)N1c2ccc(-c3ccc(S(=O)(=O)CC(C)C)cc3)cc2N(C(=O)OC2CCCCC2)C[C@@H]1C` [Example I-1239], the results for the IC50 on BRD4 BD2, in the test on MV4-11 cells and on BRD4 BD1 were 50 to 500 nM, 100 to 500 nM and 100 to 1000 nM, respectively.
Regarding `CCOC(=O)N1C[C@H](C)N(C(C)=O)c2ccc(-c3ccc(F)c(S(C)(=O)=O)c3)cc21` [Example I-1100], the IC50 at BRD4 BD2 is 50 to 500 nM; in the test on MV4-11 cells, above 500 nM; on BRD4 BD1, 1000 to 10000 nM.
Consider `CC(=O)N1c2ccc(-c3cnn(C4COC4)c3)cc2N(C(=O)OC2CC(F)(F)C2)C[C@@H]1C` [Example I-65, (S)-3,3-difluorocyclobutyl 4-acetyl-3-methyl-7-(1-(oxetan-3-yl)-1H-pyrazol-4-yl)-3,4-dihydroquinoxaline-1(2H)-carboxylate], for which the IC50 on BRD4 BD2 was below 50 nM; in the test with MV4-11 cells it was 100 to 500 nM; on BRD4 BD1 it was below 100 nM.
Take `CCOC(=O)N1C[C@H](C)N(C(C)=O)c2ccc(-c3ccc(S(N)(=O)=O)cc3)cc21` [Example I-1068]: the IC50 on BRD4 BD2 was 50 to 500 nM; in the test with MV4-11 cells, above 500 nM; on BRD4 BD1 it was 1000 to 10000 nM.
With `CC(=O)N1c2ccc(-c3ccc4scnc4c3)cc2N(C(=O)c2ccco2)C[C@@H]1C` [Example I-865], the IC50 is below 50 nM on BRD4 BD2, 100 to 500 nM in the test with MV4-11 cells and 100 to 1000 nM at BRD4 BD1.
As to `CC(=O)N1c2ccc(-c3ccc(OCCS(C)(=O)=O)cc3)cc2N(C(=O)OC(C)C)C[C@@H]1C` [Example I-1103], the IC50 at BRD4 BD2 was 50 to 500 nM; in the test on MV4-11 cells it was above 500 nM; on BRD4 BD1, 100 to 1000 nM.
The corresponding values for `CC(=O)N1c2ccc(-c3ccc(OCCN(C)C)cc3)cc2N(C(=O)c2ccco2)C[C@@H]1C` [Example I-276] are below 50 nM, below 100 nM and 1000 to 10000 nM.
`CC(=O)N1c2ccc(-c3cccc(N4CCCS4(=O)=O)c3)cc2N(C(=O)OC(C)C)C[C@@H]1C` [Example I-1153]: the IC50 on BRD4 BD2 was 50 to 500 nM; in the test with MV4-11 cells it was 100 to 500 nM; on BRD4 BD1, 100 to 1000 nM.
In the case of `CC(=O)N1c2ccc(-c3ccc(C(=O)N4CCNC(=O)C4)cc3)cc2N(C(=O)OC(C)C)C[C@@H]1C` [Example I-547], the IC50 at BRD4 BD2 fell in the range of 50 to 500 nM; with MV4-11 cells it was 100 to 500 nM; at BRD4 BD1 it was 100 to 1000 nM.
Take `CC(=O)N1c2ccc(-c3cnn(C4COC4)c3)cc2N(c2nn(C)c3ccccc23)C[C@@H]1C` [Example I-53, (S)-1-(2-methyl-4-(1-methyl-1H-indazol-3-yl)-6-(1-(oxetan-3-yl)-1H-pyrazol-4-yl)-3,4-dihydroquinoxalin-1(2H)-yl)ethanone]: the figures for the IC50 at BRD4 BD2, in the test on MV4-11 cells and at BRD4 BD1 were below 50 nM, 100 to 500 nM and 100 to 1000 nM, respectively.
On to `CC(=O)N[C@H]1CCN(C(=O)c2ccc(-c3ccc4c(c3)N(C(=O)OC(C)C)C[C@H](C)N4C(C)=O)cc2)C1` [Example I-541], for which the IC50 at BRD4 BD2 is 50 to 500 nM; in the test on MV4-11 cells, 100 to 500 nM; at BRD4 BD1, 100 to 1000 nM.
Turning to `CC(=O)N1c2ccc(-c3ccc(S(C)(=O)=O)cc3)cc2N(C(=O)C2CCC2)C[C@@H]1C` [Example I-245], the IC50 on BRD4 BD2 is 50 to 500 nM; in the test on MV4-11 cells it was above 500 nM; at BRD4 BD1, 1000 to 10000 nM.
On to `CC(=O)N1c2ccc(-c3cnn(C4CS(=O)(=O)C4)c3)cc2N(C(=O)OC2CCCC2)C[C@@H]1C` [Example I-1307], for which the IC50 on BRD4 BD2 is below 50 nM; in the test on MV4-11 cells, 100 to 500 nM; at BRD4 BD1, 100 to 1000 nM.
In the case of `CC(=O)N1CCN(C(=O)c2ccc(-c3ccc4c(c3)N(C(=O)OC(C)C)C[C@H](C)N4C(C)=O)cc2)CC1` [Example I-548], the IC50 was 50 to 500 nM at BRD4 BD2, below 100 nM in the test with MV4-11 cells and 100 to 1000 nM on BRD4 BD1.
